Patent US10717716B2, “1,3,4-oxadiazole derivative compounds as histone deacetylase 6 inhibitor, and the pharmaceutical composition comprising the same” (Chong Kun Dang Pharmaceutical Corp., priority 2015, dated 2020)

Molecular target: T1, human recombinant HDAC6 (Homo sapiens, UniProt Q9UBN7)
T1 construct: purchased Calbiochem 382180
T1 sequence (Q9UBN7 1-1215): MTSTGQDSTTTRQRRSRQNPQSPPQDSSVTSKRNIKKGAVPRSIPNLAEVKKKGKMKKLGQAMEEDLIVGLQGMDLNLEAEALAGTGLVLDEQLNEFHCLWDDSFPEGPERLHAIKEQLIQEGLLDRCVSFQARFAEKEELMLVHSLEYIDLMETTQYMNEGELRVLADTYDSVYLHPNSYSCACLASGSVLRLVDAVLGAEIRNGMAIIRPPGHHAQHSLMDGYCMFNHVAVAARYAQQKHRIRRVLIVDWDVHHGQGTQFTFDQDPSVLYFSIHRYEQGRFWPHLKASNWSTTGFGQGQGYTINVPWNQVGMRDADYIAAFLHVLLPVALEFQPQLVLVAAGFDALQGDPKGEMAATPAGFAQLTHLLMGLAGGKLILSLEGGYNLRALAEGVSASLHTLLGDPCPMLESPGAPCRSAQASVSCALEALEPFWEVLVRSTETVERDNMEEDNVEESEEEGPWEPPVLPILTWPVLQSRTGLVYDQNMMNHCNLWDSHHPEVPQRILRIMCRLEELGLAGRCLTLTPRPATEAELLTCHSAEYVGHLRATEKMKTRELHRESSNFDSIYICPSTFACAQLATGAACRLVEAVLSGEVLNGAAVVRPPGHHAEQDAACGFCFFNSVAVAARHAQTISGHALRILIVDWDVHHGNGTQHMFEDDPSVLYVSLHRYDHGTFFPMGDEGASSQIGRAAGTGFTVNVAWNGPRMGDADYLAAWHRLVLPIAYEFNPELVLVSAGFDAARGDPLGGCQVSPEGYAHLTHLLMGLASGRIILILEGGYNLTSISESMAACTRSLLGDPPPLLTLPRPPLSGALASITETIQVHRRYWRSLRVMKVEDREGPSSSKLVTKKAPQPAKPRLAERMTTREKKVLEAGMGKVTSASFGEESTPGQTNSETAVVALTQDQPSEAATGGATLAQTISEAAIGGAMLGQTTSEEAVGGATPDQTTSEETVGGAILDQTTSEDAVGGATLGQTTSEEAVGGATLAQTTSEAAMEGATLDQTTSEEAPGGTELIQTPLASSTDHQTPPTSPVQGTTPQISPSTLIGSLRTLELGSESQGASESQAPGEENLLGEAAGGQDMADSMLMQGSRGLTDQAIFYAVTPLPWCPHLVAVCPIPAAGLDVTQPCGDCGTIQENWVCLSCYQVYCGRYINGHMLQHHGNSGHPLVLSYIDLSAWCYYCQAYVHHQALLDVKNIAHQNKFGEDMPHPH
Experiment: HDAC6 enzyme activity inhibition assay (HDAC Fluorimetric Drug Discovery Kit)
Assay type: biochemical
Conditions: for HDAC6 selectivity (fold): HDAC6 over HDAC1; for IC50: human recombinant HDAC6, same protocol as HDAC1, read-out: HDAC6
Protocol: In order to examine the HDAC6 selectivity of the compounds of formula I of the present invention by HDAC1 and HDAC6 enzymatic activity inhibition assays, an experiment was performed using a conventional substance as a control.
HDAC enzyme activity was measured using a HDAC Fluorimetric Drug Discovery Kit (BML-AK511, 516, Enzo Life Science). For the HDAC1 enzyme activity test, human recombinant HDAC1 (BML-SE456) was used as an enzyme source, and Fluor de Lys®-“SIRT1 (BNL-KI177) was used as a substrate. A 5-fold dilution of the compound was seeded into a 96-well plate, and then 0.3 μg of the enzyme and 10 μM of the substrate were added to each well of the plate and allowed to react at 30° C. for 60 minutes. Then, Fluor de Lys®-Developer II (BML-KI176) was added thereto and allowed to react for 30 minutes, after which the fluorescence value (Ex 360, Em 460) was measured using a multi-plate reader (Flexstation 3, Molecular Device). The HDAC6 enzyme was tested using human recombinant HDAC6 (382180) (Calbiochem) according to the same protocol as the HDAC1 enzyme activity test method. Based on the resulting values, each IC5, value was calculated using GraphPad Prism4.0 program.

Row | Structure (SMILES) | HDAC6 selectivity (fold) | IC50 [nM]
1 | O=C(NCC1CCOCC1)N(Cc1ccc(-c2nnc(C(F)(F)F)o2)cc1)c1ccccc1 [Compound 21357, 1-Phenyl-3-((tetrahydro-2H-pyran-4-yl)methyl)-1-(4-(5-(trifluoromethyl)-1,3,4-oxadiazol-2-yl)benzyl)urea] | 21 | 472
2 | O=C(N1CC=C(c2ccccc2)CC1)N(Cc1ccc(-c2nnc(C(F)(F)F)o2)cc1)c1ccccc1 [Compound 21359, N,4-diphenyl-N-(4-(5-(trifluoromethyl)-1,3,4-oxadiazol-2-yl)benzyl)-3,6-dihydropyridine-1(2H)-carboxamide] | 4 | 2280
3 | O=C(N1CCS(=O)(=O)CC1)N(Cc1ccc(-c2nnc(C(F)F)o2)cc1)c1ccccc1 [Compound 21360, N-(4-(5-(difluoromethyl)-1,3,4-oxadiazol-2-yl)benzyl)-N-phenylthiomorpholine-4-carboxamide 1,1-dioxide] | 282 | 35.4
4 | O=C(NCc1ccccc1)N(Cc1ccc(-c2nnc(C(F)(F)F)o2)cc1)c1ccccc1 [Compound 21368, 3-Benzyl-1-phenyl-1-(4-(5-(trifluoromethyl)-1,3,4-oxadiazol-2-yl)benzyl)urea] | 24 | 420
5 | O=C(N1CCS(=O)(=O)CC1)N(Cc1ccc(-c2nnc(C(F)(F)F)o2)cc1F)c1ccccc1 [Compound 21369, N-(2-fluoro-4-(5-(trifluoromethyl)-1,3,4-oxadiazol-2-yl)benzyl)-N-phenylthiomorpholine-4-carboxamide 1,1-dioxide] | 179 | 56
6 | O=C(N1CCS(=O)(=O)CC1)N(Cc1ccc(-c2nnc(C(F)F)o2)cc1F)c1ccccc1 [Compound 21370, N-(4-(5-(difluoromethyl)-1,3,4-oxadiazol-2-yl)-2-fluorobenzyl)-N-phenylthiomorpholine-4-carboxamide 1,1-dioxide] | 400 | 25
7 | O=C(N1CCS(=O)(=O)CC1)N(Cc1ccc(-c2nnc(C(F)(F)F)o2)cc1)C1CCCC1 [Compound 21371, N-cyclopentyl-N-(4-(5-(trifluoromethyl)-1,3,4-oxadiazol-2-yl)benzyl)thiomorpholine-4-carboxamide 1,1-dioxide] | 9 | 1090
8 | O=C(N1CCS(=O)(=O)CC1)N(Cc1ccc(-c2nnc(C(F)F)o2)cn1)c1ccccc1 [Compound 21373, N-((5-(5-(difluoromethyl)-1,3,4-oxadiazol-2-yl)pyridin-2-yl)methyl)-N-phenylthiomorpholine-4-carboxamide 1,1-dioxide] | 500 | 20
9 | CCN(Cc1ccc(-c2nnc(C(F)(F)F)o2)cc1)C(=O)N1CCS(=O)(=O)CC1 [Compound 21375, N-ethyl-N-(4-(5-(trifluoromethyl)-1,3,4-oxadiazol-2-yl)benzyl)thiomorpholine-4-carboxamide 1,1-dioxide] | 6 | 1750
10 | C[C@@H]1CN(C(=O)N(Cc2ccc(-c3nnc(C(F)(F)F)o3)cc2)c2ccccc2)C[C@H](C)N1Cc1ccccc1 [Compound 21376, (3S,5R)-4-Benzyl-3,5-dimethyl-N-phenyl-N-(4-(5-(trifluoromethyl)-1,3,4-oxadiazol-2-yl)benzyl)piperazine-1-carboxamide] | 22 | 448

Further lines, results first:

Row | HDAC6 selectivity (fold) | IC50 [nM] | Structure (SMILES)
11 | 1 | 6910 | O=C(N1CCOCC1)N(Cc1ccc(Cc2nnc(C(F)(F)F)o2)cc1)c1ccccc1 [Compound 21355, N-phenyl-N-(4-((5-(trifluoromethyl)-1,3,4-oxadiazol-2-yl)methyl)benzyl)morpholine-4-carboxamide]
12 | 10 | 1050 | O=C(N1CCN(c2ccccc2)CC1)N(Cc1ccc(-c2nnc(C(F)(F)F)o2)cc1)c1ccccc1 [Compound 21358, N,4-diphenyl-N-(4-(5-(trifluoromethyl)-1,3,4-oxadiazol-2-yl)benzyl)piperazine-1-carboxamide]
13 | 147 | 67.8 | O=C(N1CCS(=O)(=O)CC1)N(Cc1ccc(-c2nnc(C(F)(F)F)o2)cc1)c1ccccc1 [Compound 21361, N-phenyl-N-(4-(5-(trifluoromethyl)-1,3,4-oxadiazol-2-yl)benzyl)thiomorpholine-4-carboxamide 1,1-dioxide]
14 | 180 | 55.7 | O=C(N1CCNCC1)N(Cc1ccc(-c2nnc(C(F)(F)F)o2)cc1)c1ccccc1 [Compound 21362, N-phenyl-N-(4-(5-(trifluoromethyl)-1,3,4-oxadiazol-2-yl)benzyl)piperazine-1-carboxamide]
15 | 118 | 84.8 | CS(=O)(=O)N1CCN(C(=O)N(Cc2ccc(-c3nnc(C(F)(F)F)o3)cc2)c2ccccc2)CC1 [Compound 21363, 4-(Methylsulfonyl)-N-phenyl-N-(4-(5-(trifluoromethyl)-1,3,4-oxadiazol-2-yl)benzyl)piperazine-1-carboxamide]
16 | 108 | 92.4 | CC(=O)N1CCN(C(=O)N(Cc2ccc(-c3nnc(C(F)(F)F)o3)cc2)c2ccccc2)CC1 [Compound 21364, 4-Acetyl-N-phenyl-N-(4-(5-(trifluoromethyl)-1,3,4-oxadiazol-2-yl)benzyl)piperazine-1-carboxamide]
17 | 69 | 145 | CC(C)C(=O)N1CCN(C(=O)N(Cc2ccc(-c3nnc(C(F)(F)F)o3)cc2)c2ccccc2)CC1 [Compound 21365, 4-Isobutyryl-N-phenyl-N-(4-(5-(trifluoromethyl)-1,3,4-oxadiazol-2-yl)benzyl)piperazine-1-carboxamide]
18 | 79 | 126 | CCC(=O)N1CCN(C(=O)N(Cc2ccc(-c3nnc(C(F)(F)F)o3)cc2)c2ccccc2)CC1 [Compound 21366, N-phenyl-4-propionyl-N-(4-(5-(trifluoromethyl)-1,3,4-oxadiazol-2-yl)benzyl)piperazine-1-carboxamide]
19 | 43 | 234 | O=C(N1CCN(C(=O)C(F)(F)F)CC1)N(Cc1ccc(-c2nnc(C(F)(F)F)o2)cc1)c1ccccc1 [Compound 21367, N-phenyl-4-(2,2,2-trifluoroacetyl)-N-(4-(5-(trifluoromethyl)-1,3,4-oxadiazol-2-yl)benzyl)piperazine-1-carboxamide]
20 | 132 | 76 | O=C(N1CCS(=O)(=O)CC1)N(Cc1ccc(-c2nnc(C(F)(F)F)o2)cn1)c1ccccc1 [Compound 21372, N-phenyl-N-((5-(5-(trifluoromethyl)-1,3,4-oxadiazol-2-yl)pyridin-2-yl)methyl)thiomorpholine-4-carboxamide 1,1-dioxide]
21 | 10 | 1010 | O=C(N1CCS(=O)(=O)CC1)N(Cc1ccccc1)Cc1ccc(-c2nnc(C(F)(F)F)o2)cc1 [Compound 21374, N-benzyl-N-(4-(5-(trifluoromethyl)-1,3,4-oxadiazol-2-yl)benzyl)thiomorpholine-4-carboxamide 1,1-dioxide]
22 | 30 | 334 | O=C(N1CCC(F)(F)CC1)N(Cc1ccc(-c2nnc(C(F)(F)F)o2)cc1)c1ccccc1 [Compound 21377, 4,4-Difluoro-N-phenyl-N-(4-(5-(trifluoromethyl)-1,3,4-oxadiazol-2-yl)benzyl)piperidine-1-carboxamide]
